Data reported in patent US7202228B2, “Hydrogelation agents” (Japan Science and Technology Agency, priority 2001, dated 2007).

What was measured:
[1] = Gelatinizing ability in aqueous solutions of varying pH (gel formation observed); format: physicochemical; set-up: key to formation of a gel, pH 168 / formation of a gel, pH 401 / formation of a gel, pH 755 / formation of a gel, pH 918 / formation of a gel, milliQ water: the formation of gel is indicated by “G”; partial formation of gel is indicated by “LG”; unchanged aqueous solution is indicated by “S”; the formation of a precipitate is indicated by “P”; insolubility is indicated by “I”; details: for formation of a gel, pH 401: 10 mg compound in 0.5 ml buffer solution pH 401; for formation of a gel, pH 401 / formation of a gel, pH 755 / formation of a gel, pH 918 / formation of a gel, pH 168 / formation of a gel, milliQ water: 60° C. or more, ultrasound one hour, then room temperature; for formation of a gel, pH 755: 10 mg compound in 0.5 ml buffer solution pH 755; for formation of a gel, pH 918: 10 mg compound in 0.5 ml buffer solution pH 918; for formation of a gel, pH 168: 10 mg compound in 0.5 ml buffer solution; for formation of a gel, milliQ water: 10 mg compound in 0.5 ml milliQ water (distilled water); for solidification of milliQ water (distilled water) or water of pH 4–9: concentration of hydrogelatinizer 2wt %
Description: The gelatinizing ability was examined for aqueous solutions, of varying pH, of Compounds 1–7 synthesized in Manufacturing Examples 1–7. 10 mg of these compounds was placed in a sample bottle together with 0.5 ml of buffer solution adjusted to various pH, and while maintaining the temperature at 60° C. or more, the mixture was irradiated with ultrasound for one hour. After leaving the resulting aqueous solution at room temperature, the formation of a gel was observed.
In the table, the formation of gel is indicated by “G”, partial formation of gel is indicated by “LG”, unchanged aqueous solution is indicated by “S”, the formation of a precipitate is indicated by “P”, and insolubility is indicated by “I”.

[2] = Hydrogel formation in water (dissolve at 60° C. or more, leave at room temperature); format: physicochemical; details: left at room temperature
Description: Next, the method of manufacturing a hydrogel will be described. The gelatinizer of the invention is dissolved in an aqueous solution. A weakly acidic (pH 4) or weakly alkaline (pH 10) aqueous solution is preferred from the viewpoint of solubility. If the pH of the aqueous solution is less than 4, all of the phosphoric acid part is protonated, and it is difficult to dissolve in water. If the pH is higher than 10, the phosphoric acid part dissociates, and remains dissociated so that the water is not solidified. After dissolving the compound in the aqueous solution with heating, it is gradually cooled to room temperature and allowed to stand. In the dissolution process, heat alone is sufficient if the compound can be completely dissolved. If necessary, the compound can be efficiently converted to a simple dispersion in an aqueous solvent by ultrasound. The heating time is of the order of 30 minutes to 2 hours, but to ensure that dissolution of the compound is complete, it is preferably one hour or more. When the aqueous solution in which the compound has been dissolved is gradually cooled in air, and left at room temperature, the aqueous solution solidifies within one day-several days, and forms a hydrogel. […] The fluidity of the resulting gel may be varied by adjusting the pH of the water and the concentration of the gelatinizer during manufacture. In general, the formation of the hydrogel may be observed with the naked eye, but if the microstructure of the gel is observed using an optical microscope or scanning electron microscope, it can be seen that extremely fine fibers of the order of nanometers are entangled together to form a lattice structure.

[3] = 100 mg in 0.5 ml of water, dissolved at 60° C. or more

SMILES	formation of a gel, pH 401 [1]	formation of a gel, pH 755 [1]	formation of a gel, pH 918 [1]	formation of a gel, pH 168 [1]	formation of a gel, milliQ water [1]	hydrogel formation [2, 3]	solidification of milliQ water (distilled water) or water of pH 4–9 [1]	hydrogel formation ([2]; 1 mg in 0.5 ml of water, 60° C. or more, ultrasound one hour)
Cc1cn([C@H]2C[C@H](OP(=O)(O)OCCCCCCCCCCCCOP(=O)(O)O[C@H]3C[C@H](n4cc(C)c(=O)[nH]c4=O)O[C@@H]3CO)[C@@H](CO)O2)c(=O)[nH]c1=O [Compound 1, 1,12-(dodecanedioxy)bis(3′-phosphatidyl-2′-deoxythymidine)]	S	S	S	I	S	solidified after several days		
Cc1cn([C@H]2C[C@H](OP(=O)(O)OCCCCCCCCCCCCCOP(=O)(O)O[C@H]3C[C@H](n4cc(C)c(=O)[nH]c4=O)O[C@@H]3CO)[C@@H](CO)O2)c(=O)[nH]c1=O [Compound 2, 1,13-(tridecanedioxy)bis-(3′-phosphatidyl-2′-deoxythymidine)]	S	S	S	I	S	a hydrogel was obtained		
Cc1cn(C2CC(OP(=O)(O)OCCCCCCCCCCCCCCOP(=O)(O)OC3CC(n4cc(C)c(=O)[nH]c4=O)OC3CO)C(CO)O2)c(=O)[nH]c1=O (stereo not shown) [Compound 3, 1,14-(tetradecanedioxy)bis-(3′-phosphatidyl-2′-deoxythymidine)]	S	S	S	I	S			
Cc1cn(C2CC(OP(=O)(O)OCCCCCCCCCCCCCCCOP(=O)(O)OC3CC(n4cc(C)c(=O)[nH]c4=O)OC3CO)C(CO)O2)c(=O)[nH]c1=O (stereo not shown) [Compound 4, 1,15-(pentadecanedioxy)-bis(3′-phosphatidyl-2′-deoxythymidine)]	S	S	S	I	P			
Cc1cn([C@H]2C[C@H](OP(=O)(O)OCCCCCCCCCCCCCCCCOP(=O)(O)O[C@H]3C[C@H](n4cc(C)c(=O)[nH]c4=O)O[C@@H]3CO)[C@@H](CO)O2)c(=O)[nH]c1=O [Compound 5, 1,16-(hexadecanedioxy)-bis(3′-phosphatidyl-2′-deoxythymidine)]	S	S	S	I	P			
Cc1cn([C@H]2C[C@H](OP(=O)(O)OCCCCCCCCCCCCCCCCCCOP(=O)(O)O[C@H]3C[C@H](n4cc(C)c(=O)[nH]c4=O)O[C@@H]3CO)[C@@H](CO)O2)c(=O)[nH]c1=O [Compound 6, 1,18-(octadecanedioxy)bis-(3′-phosphatidyl-2′-deoxythymidine)]	P	P	S	I	G		efficiently solidified	
Cc1cn([C@H]2C[C@H](OP(=O)(O)OCCCCCCCCCCCCCCCCCCCCOP(=O)(O)O[C@H]3C[C@H](n4cc(C)c(=O)[nH]c4=O)O[C@@H]3CO)[C@@H](CO)O2)c(=O)[nH]c1=O [Compound 7, 1,20-(icosanedioxy)bis-(3′-phosphatidyl-2′-deoxythymidine)]	LG	G	G	I	G		efficiently solidified	solidified after several days
